Measurements: ChEMBL document CHEMBL1201862, “PubChem BioAssay data set” (2004)
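A five-concentration, 48-hour dose response in 96-well plates underlies each endpoint, interpolated linearly between surrounding concentrations. GI50: concentration for 50% inhibition of growth.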 Activity calls are given as the source filed them. No stated cut-off is given here; in the data, active = GI50 up to about 1.1 µM and inactive = higher.

How the values were obtained:
Assay in all cases: DTP human tumour cell line panel, 48 h
[1] = tested on: 786-0
[2] = tested on: A498
[3] = tested on: A549
[4] = tested on: ACHN
[5] = tested on: CAKI-1
[6] = tested on: CCRF-CEM
[7] = tested on: COLO 205
[8] = tested on: DLD-1
[9] = tested on: DMS-114
[10] = tested on: DMS-273
[11] = tested on: EKVX
[12] = tested on: HCC 2998
[13] = tested on: HCT-15
[14] = tested on: HL-60
[15] = tested on: HOP-62
[16] = tested on: HOP-92
[17] = tested on: HT-29
[18] = tested on: IGROV-1
[19] = tested on: K562
[20] = tested on: KM-20L2
[21] = tested on: KM12
[22] = tested on: LOX IMVI
[23] = tested on: M14
[24] = tested on: M19-MEL
[25] = tested on: MOLT-4
[26] = tested on: Malme-3M
[27] = tested on: NCI-H226
[28] = tested on: NCI-H23
[29] = tested on: NCI-H460
[30] = tested on: NCI-H522
[31] = tested on: OVCAR-3
[32] = tested on: OVCAR-4
[33] = tested on: OVCAR-5
[34] = tested on: OVCAR-8
[35] = tested on: RPMI-8226
[36] = tested on: RXF 393
[37] = tested on: SF-268
[38] = tested on: SF-295
[39] = tested on: SF-539
[40] = tested on: SK-MEL-28
[41] = tested on: SK-MEL-2
[42] = tested on: SK-MEL-5
[43] = tested on: SK-OV-3
[44] = tested on: SN12C
[45] = tested on: SNB-19
[46] = tested on: SNB-75
[47] = tested on: SNB-78
[48] = tested on: SW-620
[49] = tested on: TK-10
[50] = tested on: U-251
[51] = tested on: UACC-257
[52] = tested on: UACC-62
[53] = tested on: UO-31
[54] = tested on: XF498
[55] = tested on: BT-549
[56] = tested on: DU-145
[57] = tested on: HCT-116
[58] = tested on: Hs-578T
[59] = tested on: MCF7
[60] = tested on: MDA-MB-231
[61] = tested on: MDA-MB-435
[62] = tested on: MDA-N
[63] = tested on: NCI/ADR-RES
[64] = tested on: PC-3
[65] = tested on: SR
[66] = tested on: T47D
[67] = tested on: LXFL 529

Measured: GI50

Cc1ccccc1SC(/C=C/NNC1=NN=C(c2ccccc2)C(c2ccccc2)N1)c1ccccc1 (stereo not drawn)
34 µM: [13]
inactive: [1] 11.9 µM | [2] 23.7 µM | [3] 14.3 µM | [4] 15.4 µM | [5] 13.7 µM | [6] 27.3 µM | [7] 36.4 µM | [8] 37.5 µM | [9] 22.9 µM | [10] 35.7 µM | [11] 27.2 µM | [12] 40.6 µM | [14] > 10 µM | [15] 17.7 µM | [16] 9.57 µM | [17] 29.8 µM | [18] 27.4 µM | [19] 30.2 µM | [20] 52 µM | [21] 28.4 µM | [22] 33.8 µM | [23] 19.1 µM | [24] 26 µM | [25] 41.7 µM | [26] 22.4 µM | [27] 18.3 µM | [28] 17.5 µM | [29] 34.9 µM | [30] 33.8 µM | [31] 13.7 µM | [32] 2.99 µM | [33] > 100 µM | [34] 13.7 µM | [35] 27.5 µM | [36] 11.1 µM | [37] 24.9 µM | [38] 18.8 µM | [39] 13.4 µM | [40] 15.7 µM | [41] 16.3 µM | [42] 26.1 µM | [43] 22.4 µM | [44] 61.2 µM | [45] 50 µM | [46] 5.68 µM | [47] 22 µM | [48] 27.7 µM | [49] 17.8 µM | [50] 24.9 µM | [51] 18.6 µM | [52] 29.4 µM | [53] 16.9 µM | [54] 34.7 µM

O=C1Sc2ccc(Br)cc2C(=O)Sc2ccccc21
inactive: [1] 11 µM | [2] 20.9 µM | [3] 27.1 µM | [4] 16.4 µM | [55] 12.5 µM | [5] 14.6 µM | [6] 2.48 µM | [7] 13.2 µM | [56] 11.8 µM | [11] 8.02 µM | [12] 14.5 µM | [57] 13 µM | [14] 2.42 µM | [15] 12.6 µM | [16] 13.5 µM | [17] 14.3 µM | [58] 11.4 µM | [18] 14.2 µM | [19] 12.8 µM | [21] 16 µM | [22] 9.1 µM | [23] 11.4 µM | [59] 16.4 µM | [60] 16.5 µM | [61] 7.91 µM | [62] 8.17 µM | [25] 4.34 µM | [26] 2.24 µM | [27] 18.5 µM | [28] 15.7 µM | [29] 15.8 µM | [30] 4.84 µM | [63] 16 µM | [31] 12.5 µM | [32] 13.2 µM | [33] 17.9 µM | [34] 9.84 µM | [64] 13 µM | [35] 3.33 µM | [36] 4.56 µM | [37] 7.08 µM | [38] 22.4 µM | [39] 11.6 µM | [40] 19.5 µM | [41] 18.8 µM | [42] 14.4 µM | [43] 27.4 µM | [44] 14.5 µM | [45] 13.9 µM | [46] 12.5 µM | [48] 17.9 µM | [66] 9.29 µM | [49] 17.9 µM | [50] 14.5 µM | [51] 13.8 µM | [52] 16.8 µM | [53] 12.9 µM
active: [65] 1.06 µM
15.7 µM: [13]

CCCC(=O)Nc1cc(/C=C/C(=O)N2CC(CCl)c3c2cc(O)c2[nH]cc(C)c32)n(C)c1 (stereo not drawn)
0.000117 µM: [13]
active: [1] < 2.5e-05 µM | [2] < 2.5e-05 µM | [3] < 2.5e-05 µM | [4] < 2.5e-05 µM | [55] < 2.5e-05 µM | [5] < 2.5e-05 µM | [6] < 2.5e-05 µM | [7] < 2.5e-05 µM | [56] < 2.5e-05 µM | [11] < 2.5e-05 µM | [12] < 2.5e-05 µM | [57] < 2.5e-05 µM | [14] < 2.5e-05 µM | [15] < 2.5e-05 µM | [16] < 2.5e-05 µM | [17] < 2.5e-05 µM | [58] < 2.5e-05 µM | [18] < 2.5e-05 µM | [19] 3.79e-05 µM | [21] < 2.5e-05 µM | [22] < 2.5e-05 µM | [23] < 2.5e-05 µM | [59] < 2.5e-05 µM | [60] < 2.5e-05 µM | [61] < 2.5e-05 µM | [62] < 2.5e-05 µM | [25] < 2.5e-05 µM | [26] < 2.5e-05 µM | [27] < 2.5e-05 µM | [28] < 2.5e-05 µM | [29] < 2.5e-05 µM | [30] < 2.5e-05 µM | [63] 9.64e-05 µM | [31] < 2.5e-05 µM | [32] < 2.5e-05 µM | [33] < 2.5e-05 µM | [34] < 2.5e-05 µM | [64] < 2.5e-05 µM | [35] 5.49e-05 µM | [36] < 2.5e-05 µM | [37] < 2.5e-05 µM | [38] < 2.5e-05 µM | [39] < 2.5e-05 µM | [40] < 2.5e-05 µM | [41] < 2.5e-05 µM | [42] < 2.5e-05 µM | [43] < 2.5e-05 µM | [44] < 2.5e-05 µM | [45] < 2.5e-05 µM | [46] < 2.5e-05 µM | [65] < 2.5e-05 µM | [48] < 2.5e-05 µM | [66] < 2.5e-05 µM | [49] < 2.5e-05 µM | [50] < 2.5e-05 µM | [51] < 2.5e-05 µM | [52] < 2.5e-05 µM | [53] < 2.5e-05 µM

COc1cc2c(cc1OC)C1C(=O)c3c(O)cc4c(c3OC1CO2)C=CC(C)(C)O4 (stereo not drawn)
19.1 µM: [13]
inactive: [2] 21.6 µM | [3] 2.25 µM | [5] 21.7 µM | [57] 10.9 µM | [15] 14.8 µM | [16] 18.2 µM | [17] 27.8 µM | [18] 19 µM | [20] 29.5 µM | [21] 9.44 µM | [22] 5.89 µM | [67] 7.03 µM | [23] 23.5 µM | [24] 13.8 µM | [26] 20.6 µM | [29] 20.8 µM | [30] 1.28 µM | [31] 13.5 µM | [33] 84.1 µM | [37] 27.6 µM | [39] 18.2 µM | [40] 35.6 µM | [41] 18.8 µM | [42] 1.17 µM | [43] 22.3 µM | [44] 27.2 µM | [46] 26.7 µM | [47] 31.9 µM | [65] > 100 µM | [48] 23.5 µM | [49] 32.8 µM | [50] 12.3 µM | [52] 12.9 µM | [53] 3.01 µM
active: [4] 0.748 µM | [9] 0.366 µM

O=C(CCN1CCCCC1CO)Nc1ccc2c(c1)C(=O)c1ccc(NC(=O)CCN3CCCCC3CO)cc1C2=O (stereo not drawn)
14.2 µM: [13]
inactive: [1] 1.98 µM | [2] 2.25 µM | [3] 27.9 µM | [4] 11.8 µM | [5] 13.5 µM | [6] 3.61 µM | [7] 7.71 µM | [9] 14.1 µM | [10] 5.16 µM | [11] 19.1 µM | [12] 9.35 µM | [57] 7.38 µM | [14] 10.6 µM | [15] 14.5 µM | [16] 15.5 µM | [17] 11.4 µM | [18] 9.68 µM | [19] 6.25 µM | [20] 25.6 µM | [21] 4.34 µM | [22] 6.93 µM | [67] 2.34 µM | [23] 10.4 µM | [24] 15.8 µM | [25] 8.39 µM | [26] 5.27 µM | [27] 18.8 µM | [28] 17 µM | [29] 6.58 µM | [30] 8.18 µM | [32] 11.5 µM | [33] 18.7 µM | [34] 6.73 µM | [35] 13.2 µM | [36] 2 µM | [37] 10 µM | [38] 23.8 µM | [39] 3.6 µM | [40] 12.9 µM | [41] 4.58 µM | [42] 15.4 µM | [43] 13.7 µM | [44] 6.68 µM | [45] 11 µM | [46] 4.28 µM | [47] 7.36 µM | [65] 10.7 µM | [48] 3.64 µM | [49] 8.3 µM | [50] 8.13 µM | [51] 14.4 µM | [52] 8.95 µM | [53] 13.8 µM
